Laboratory results taken from patent US20250376471A1, “CRYSTALLINE FORMS OF 2-[3-[4-AMINO-3-(2-FLUORO-4-PHENOXY-PHENYL)PYRAZOLO[3,4-D]PYRIMIDIN-1-YL]PIPERIDINE-1-CARBONYL]-4-METHYL-4-[4-(OXETAN-3-YL)PIPERAZIN-1-YL]PENT-2-ENENITRILE” (Principia Biopharma Inc., priority 2022, published 2025).
≈ marks a conversion by molar mass, not a printed value. Where “and” joins values, the source holds several entries; their conditions need not be identical. Equal values may be shown once.

Key:
[1] = Comparative solubility in Milli-Q purified water (HPLC); conditions: for pH: water, 24 hr
Experimental: (§1) Using the stock solution, a dilution series for the purpose of HPLC quantitation was generated according to the following Table 8.
First, a quantity of test sample was placed in a 2-dram vial equipped with stir bar. […] In the second step, Milli-Q water was added to the vial under stirring followed by measuring the pH of the resulting suspension/solution. […] In each case, the sample was filtered through a 0.2 μm filter. The resulting solution was appropriately diluted to fall within the calibrated concentration range on HPLC. The sampling was repeated in identical fashion after 3 hr and 24 hr. After the last sample was taken, the pH was recorded again. The dissolved sample was determined by converting the recorded area on HPLC to concentration in mg/mL using the established calibration equation.

[2] = Visual solubility of Form B crystal in common solvents at RT; assay type: physicochemical; conditions: organic solvent or mixture, thermodynamic from solid, visually estimated
From the text: The solubility was visually estimated in 12 common solvents at RT.

[3] = Comparative grinding study (XRPD pre- and post-grinding); assay type: physicochemical; conditions: 40 mg ground at 30 Hz for 30 min with steel ball bearing
Experimental: The samples were each ground at 30 Hz for 30 min, then reanalyzed by XRPD.

[4] = Comparative solubility in aqueous buffers (HPLC); assay type: physicochemical
Experimental: as §1
Next, the second step of this modified procedure involved adding a buffer (5 mL) to the vial under stirring followed by measuring the pH of the resulting suspension. In case the pH drifted by more than 0.1 unit from the target pH, 10 μL aliquots of 1M NaOH (aq.) were used to readjust the pH to the original value. […] As above in 9.2, the samples were filtered through a 0.2 μm filter, and the resulting solution was appropriately diluted to fall within the calibrated concentration range on HPLC. The sampling was repeated in an identical fashion after 3 hr and 24 hr and after the last sample was taken, the pH was recorded again. The dissolved sample was determined by converting the recorded area on HPLC to concentration in mg/mL using the established calibration equation.

[5] = Static storage analysis (XRPD pre- and post-storage); assay type: physicochemical; conditions: stored for one week at 25° C. and 40° C.
Experimental: Samples of methyl paraben co-crystalline form of Compound (I) (Example 10), after drying in a vacuum oven were stored for one week at 25° C. and 40° C.

[6] = Hygroscopicity (GVS analysis) and solid-state properties of methyl paraben co-crystal; assay type: physicochemical
From the text: The co-crystal is also readily prepared from anti-solvent addition and generates a good yield.

[7] = Solubility of methyl paraben co-crystal in pH 4.5 and 6.8 buffer (HPLC); assay type: physicochemical
Experimental: The sample was suspended in 1.5 mL media for a maximum anticipated concentration of Ca. […] The resulting suspensions were then shaken at 25° C./750 rpm for 24 hr. After 1 hr, 3 hr and 24 hr of equilibration, 0.5 mL of sample was aliquoted, the appearance was noted, and the pH of the saturated solution was measured. Samples were then centrifuged at 13,400 rpm for 2 min. Supernatant was used for HPLC analysis. Samples suspended in pH 4.5 buffer were diluted 1:1 (1- and 3-hr samples) and 1:8 (24 hr samples) with pH 4.5 buffer. Samples suspended in pH 6.8 buffer were analyzed undiluted. […] Different volumes of the standard diluted and undiluted sample solutions were injected.

[8] = Compression study (XRPD pre- and post-compression); assay type: physicochemical; conditions: 6 mm recess disc, 100 kg of pressure for 2 min
Experimental: The methyl paraben co-crystalline form of Compound (I) after drying in a vacuum oven was compressed into a 6 mm recess disc under 100 kg of pressure for 2 min.

[9] = pH 4.5 buffer, 1 hour, 25° C., single sample

CC(C)(C=C(C#N)C(=O)N1CCCC(n2nc(-c3ccc(Oc4ccccc4)cc3F)c3c(N)ncnc32)C1)N1CCN(C2COC2)CC1 (centres unmarked) [Compound (I) Form B, 2-[3-[4-amino-3-(2-fluoro-4-phenoxy-phenyl)pyrazolo[3,4-d]pyrimidin-1-yl]piperidine-1-carbonyl]-4-methyl-4-[4-(oxetan-3-yl)piperazin-1-yl]pent-2-enenitrile] gave a pH [1] of 7.8, a solubility at 15 min ([2]; 4-Methyl-2-pentanone (MIBK)) of 20 to 100 mg/mL (≈ 30 to 150 mM) and a solubility at 15 min ([2]; Acetone) greater than 100 mg/mL. For the same molecule, the solubility at 15 min ([2]; Acetonitrile (MeCN)) was 20 to 100 mg/mL (≈ 30 to 150 mM), the solubility at 15 min ([2]; Cyclohexane) was less than 20 mg/mL and the solubility at 15 min ([2]; Cyclohexanone) was 20 to 100 mg/mL (≈ 30 to 150 mM). It also gave a solubility at 15 min ([2]; Dichloromethane (DCM)) greater than 100 mg/mL, a solubility at 15 min ([2]; Dimethyl carbonate (DMC)) of 20 to 100 mg/mL (≈ 30 to 150 mM) and a solubility at 15 min ([2]; Ethyl acetate (EtOAc)) of 20 to 100 mg/mL (≈ 30 to 150 mM). The solubility at 15 min ([2]; Isopropyl ether (IPE)) was less than 20 mg/mL, the solubility at 15 min ([2]; Tetrahydrofuran (THF)) was greater than 100 mg/mL and the solubility at 15 min ([2]; Toluene) was less than 20 mg/mL. For the same molecule, the solubility at 15 min ([2]; t-Butyl Methyl Ether (MTBE)) was less than 20 mg/mL, the “solid form after grinding (XRPD)” value ([3]; listed as Form B crystalline form of Compound (I)) was “became amorphous after grinding” and the pH ([4]; 50 mM Acetate, 0 hr) was 4.5. It also gave a pH ([4]; 50 mM Acetate, 24 hr) of 4.5 and a solubility at 1 h ([4]; 50 mM acetate buffer, pH 4.5, aqueous buffer, thermodynamic from solid, 50 mM Acetate, 1 hr) of 1.7 mg/mL (≈ 2.55 mM).

CC(C)(C=C(C#N)C(=O)N1CCCC(n2nc(-c3ccc(Oc4ccccc4)cc3F)c3c(N)ncnc32)C1)N1CCN(C2COC2)CC1 (centres unmarked) [Compound (I) amorphous, 2-[3-[4-amino-3-(2-fluoro-4-phenoxy-phenyl)pyrazolo[3,4-d]pyrimidin-1-yl]piperidine-1-carbonyl]-4-methyl-4-[4-(oxetan-3-yl)piperazin-1-yl]pent-2-enenitrile] gave a pH [1] of 8.3, a pH ([4]; 50 mM Acetate, 0 hr) of 4.5 and a pH ([4]; 50 mM Acetate, 24 hr) of 4.5.

For CC(C)(C=C(C#N)C(=O)N1CCCC(n2nc(-c3ccc(Oc4ccccc4)cc3F)c3c(N)ncnc32)C1)N1CCN(C2COC2)CC1.Cl (centres unmarked) [HCl salt, 2-[3-[4-amino-3-(2-fluoro-4-phenoxy-phenyl)pyrazolo[3,4-d]pyrimidin-1-yl]piperidine-1-carbonyl]-4-methyl-4-[4-(oxetan-3-yl)piperazin-1-yl]pent-2-enenitrile: HCl crystalline salt Form A], the “solubility as compared with amorphous form and Compound (I) Form B” value ([1]; Example 9, FIGS. 24A-C, water and buffers) was “significantly enhanced solubility”, the pH [1] was 4.0 and the pH ([4]; 50 mM Acetate, 0 hr) was 4.5. The pH ([4]; 50 mM Acetate, 24 hr) was 4.4.

CC(C)(C=C(C#N)C(=O)N1CCCC(n2nc(-c3ccc(Oc4ccccc4)cc3F)c3c(N)ncnc32)C1)N1CCN(C2COC2)CC1.O=C(O)/C=C\C(=O)O (centres unmarked) [Maleate, 2-[3-[4-amino-3-(2-fluoro-4-phenoxy-phenyl)pyrazolo[3,4-d]pyrimidin-1-yl]piperidine-1-carbonyl]-4-methyl-4-[4-(oxetan-3-yl)piperazin-1-yl]pent-2-enenitrile: maleate crystalline salt Form A] gave a pH [1] of 3.5, a pH ([4]; 50 mM Acetate, 0 hr) of 4.5 and a pH ([4]; 50 mM Acetate, 24 hr) of 4.0. For the same molecule, the pH ([4]; 100 mM Acetate, 0 hr) was 4.5 and the pH ([4]; 100 mM Acetate, 24 hr) was 4.5.

With CC(C)(C=C(C#N)C(=O)N1CCCC(n2nc(-c3ccc(Oc4ccccc4)cc3F)c3c(N)ncnc32)C1)N1CCN(C2COC2)CC1 (centres unmarked) [Methyl paraben co-crystal, 2-[3-[4-amino-3-(2-fluoro-4-phenoxy-phenyl)pyrazolo[3,4-d]pyrimidin-1-yl]piperidine-1-carbonyl]-4-methyl-4-[4-(oxetan-3-yl)piperazin-1-yl]pent-2-enenitrile] the “solid form after storage (XRPD)” value [5] was “retained its crystalline structure”, the “water absorbed (hygroscopicity)” value ([6]; between 0 and 90% RH) was 2.3 % w/w and the “XRPD pattern after GVS analysis, static storage conditions, grinding and compression studies, and kinetic solubility analysis” value ([6]; solid form stability) was “remained the same XRPD pattern”. For the same molecule, the “solid form after grinding (XRPD)” value [3] was “retained its co-crystalline structure pattern with only a limited reduction in overall crystallinity”, the solubility at 3 h ([7]; pH 4.5 buffer, 25 °C, pH 4.5, aqueous buffer, thermodynamic from solid, 3 hour, single sample) was 0.98 mg/mL and the solubility at 1 h ([7]; pH 4.5 buffer, 25 °C, pH 4.5, aqueous buffer, thermodynamic from solid, pH 4.5 buffer, 1 hour, 25° C., single sample, read-out: Solubility) was 0.65 mg/mL. It also gave a solubility at 1 h ([7]; pH 4.5 buffer, 25 °C, pH 4.5, aqueous buffer, thermodynamic from solid, pH 4.5 buffer, 1 hour, 25° C., read-out: Average Solubility) of 0.65 mg/mL, a Solubility [7, 9] of 0.64 mg/mL and a pH [7, 9] of 4.6. For the same molecule, the pH ([7]; pH 4.5 buffer, 3 hour, 25° C., single sample) was 4.7 and 4.6, the pH ([7]; pH 4.5 buffer, 24 hour, 25° C., single sample) was 4.7 and the pH ([7]; pH 6.8 buffer, 1 hour, 25° C., single sample) was 6.8. For the same molecule, the pH ([7]; pH 6.8 buffer, 3 hour, 25° C., single sample) was 6.8, the pH ([7]; pH 6.8 buffer, 24 hour, 25° C., single sample) was 6.9 and 6.8 and the “XRPD pattern post-solubility analysis” value ([7]; solid form stability after solubility test) was “no change in the pattern”. The “solid form after drying and compression (XRPD)” value [8] was “retained its co-crystalline structure pattern with only a limited reduction in overall crystallinity”.

With CC(C)(C=C(C#N)C(=O)N1CCCC(n2nc(-c3ccc(Oc4ccccc4)cc3F)c3c(N)ncnc32)C1)N1CCN(C2COC2)CC1.O=C(O)C(=O)O (centres unmarked) [Oxalate salt, 2-[3-[4-amino-3-(2-fluoro-4-phenoxy-phenyl)pyrazolo[3,4-d]pyrimidin-1-yl]piperidine-1-carbonyl]-4-methyl-4-[4-(oxetan-3-yl)piperazin-1-yl]pent-2-enenitrile: oxalate crystalline salt hydrate Form A] the pH [1] was 2.9, the pH ([4]; 50 mM Acetate, 0 hr) was 4.5 and the pH ([4]; 50 mM Acetate, 24 hr) was 4.27. For the same molecule, the pH ([4]; 100 mM Acetate, 0 hr) was 4.5 and the pH ([4]; 100 mM Acetate, 24 hr) was 4.5.
